What was measured:
[1] = First-in-human Phase I dose escalation safety study; assay type: in vivo
From the text: First-in-human Phase I, single site, dose escalation, safety study.
Inclusion Criteria: (1) Male and female patients≥18 years of age with advanced, histologically confirmed solid tumors refractory to standard therapy or for which no standard therapy exists; (2) Patients must have measurable or evaluable disease; (3) Patients may be entered if they have received prior radiation therapy involving ≤30% of the bone marrow; (4) Patients may be enrolled with a history of treated brain metastases that are clinically stable for ≥4 weeks prior to enrollment; (5) ECOG Performance Status of ≤2; (6) Life expectancy of greater than 12 weeks as determined by treating clinician assessment; and (7) Adequate organ function per standard laboratory assessments.
Exclusion Criteria: (1) Patients must not have received prior chemotherapy or radiation for ≥4 weeks before study treatment initiation; (2) Patients unable or unwilling to swallow pill; (3) Active heart disease including myocardial infarction within previous 3 months, symptomatic coronary artery disease or heart block, or uncontrolled congestive heart failure; and (4) Women who are pregnant or actively breast-feeding.
Intrapatient dose escalation is allowed and design reverts to standard 3+3 if 2 moderate toxicities or 1 dose limiting toxicity (DLT) is encountered.
With respect to the DLT definition, Grade≥3 non-hematological toxicity will be considered dose limiting with the following clarifications: Grade 3 diarrhea will only be considered dose limiting if it is refractory to treatment and unable to be corrected to grade 1 or less within 24 hours. Bloody or grade 4 diarrhea will be dose limiting; Grade 3 nausea and vomiting will only be considered dose limiting if it is refractory to anti-emetic therapy and unable to be corrected to grade 1 or less within 24 hours; Grade 3 rise in creatinine, not corrected to grade 1 or less within 24 hours with IV fluids will be considered dose limiting. All grade 4 rises in creatinine will be dose limiting; and Grade 3 electrolyte toxicities unable to be corrected to grade 1 or baseline within 24 hours will be considered dose limiting. Tumor pain will not be considered dose limiting unless it is refractory to optimal treatment with analgesics. With respect to Grade 4, the following will be considered: Grade 4 thrombocytopenia; Grade 4 neutropenia lasting ≥5 days or febrile neutropenia; Grade 4 hemolysis; Treatment delay>2 weeks as a result of unresolved toxicity; and any degree of anemia, leucopenia in the absence of grade 4 neutropenia lasting ≥5 days, or lymphopenia will not be considered dose limiting.
Patients receive oral COH29 twice a day for 21 days of a 28-day cycle. Dose levels range from 200 to 2400 mg per day of administration. Dose escalation is pursued utilizing a Simon's accelerated titration design, which allows skipping of dose levels (dose doubling) during the accelerated dose-finding phase. PD assessment includes measurement of plasma CK18 levels to determine degree of cellular apoptosis, evaluation of dNTP pool levels in peripheral blood mononuclear cells (PBMCs) to evaluate RNR inhibition, as well as measurement of PAR expression in PBMCs to assess PARP inhibition. Quantitation of tumor RRM2 expression using dual-color immunohistochemistry is explored as a predictive biomarker of anti-tumor response to COH29.

HCC1937+BRCA1 = assay: Microarray gene ontology enrichment, HCC1937+BRCA1; assay type: cell-based, human; details: genes downregulated, HCC1937 + BRCA1-COH29 vs HCC1937 + BRCA1
Protocol: FDR values were calculated using the method of Benjamini and Hochberg (28) from the distribution of ANOVA with Linear Contrastp-values. Gene ontology (GO) (29) enrichment analysis was performed within PARTEK® GENOMICS SUITE™, and GO categories were defined significant with a Fisher Exact test p-value<0.05.
To identify the mechanism through which COH29 preferentially lyses BRCA1-mutant human cancer cells, genome-wide microarray analysis was performed using the AFFYMETRIX® GENECHIP® microarray platform to identify the gene expression profiles and pathways affected by COH29 treatment. The RNA expression profile of COH29 treated HCC1937 breast cancer cells lacking BRCA1 was compared with that of COH29 treated HCC1937+BRCA1 cells. […] For example, DNA ligation involved in DNA repair is more strongly enriched in HCC1937 cells which may relate to the phenotypic effect.

ribonucleotide reductase = target: T1, ribonucleotide reductase (Homo sapiens, UniProt P31350); assay: RNR activity and dNTP pools in MOLT-4 tumor xenografts; assay type: in vivo, mouse; details: MOLT-4 xenografts
T1 construct: from tissue; host or cells: MOLT-4 subcutaneous tumour xenografts from mice dosed orally with COH29
T1 sequence (P31350 whole entry): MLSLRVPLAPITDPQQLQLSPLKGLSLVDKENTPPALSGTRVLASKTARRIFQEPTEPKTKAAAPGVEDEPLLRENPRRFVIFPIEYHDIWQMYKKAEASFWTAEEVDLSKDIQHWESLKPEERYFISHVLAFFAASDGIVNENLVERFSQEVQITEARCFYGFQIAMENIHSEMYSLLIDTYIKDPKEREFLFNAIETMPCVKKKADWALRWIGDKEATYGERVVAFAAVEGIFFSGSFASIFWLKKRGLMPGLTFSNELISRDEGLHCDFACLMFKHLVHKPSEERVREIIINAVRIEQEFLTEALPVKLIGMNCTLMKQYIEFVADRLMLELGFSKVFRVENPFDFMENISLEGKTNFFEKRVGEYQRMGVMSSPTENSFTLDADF
Protocol: FIGS. 12A-12D depict the activity of COH29 in mouse xenografts. Cancer cells were implanted and allowed to grow at the subcutaneous site until the tumor was measurable. Subcutaneous xenograft growth curves for leukemic-(MOLT-4) mice treated for 12 days with oral COH29 in twice-daily dosing at 50 and 100 mg/kg (FIG. 12A) and for ovarian cancer bearing mice (TOV112D) treated for 7 days with 200, 300, or 400 mg/kg of oral COH29 (FIG. 12B) (shown are the average±SDs for 4 animals/group). FIG. 12C depicts the activity of RNR in MOLT-4 tumor xenografts from mice treated with vehicle (solutol-15) or 100 mg/kg of oral COH29 for 12 days. FIG. 12D depicts the effect of oral COH29 on intratumoral dTNP pools from MOLT-4 tumor xenografts.

O=C(Nc1nc(-c2ccc(O)c(O)c2)c(-c2ccccc2)s1)c1ccc(O)c(O)c1 [COH29, N-(4-(3,4-dihydroxyphenyl)-5-phenylthiazol-2-yl)-3,4-dihydroxybenzamide]
realtime PK monitoring vs AUC safety threshold ([1]; every patient, cycle 1): no exceeding of AUC safety threshold | toxicity / DLT ([1]; first patient, dose level 1, 100 mg twice a day): without any DLT | toxicity / DLT ([1]; fourth patient, dose level 7, 800 mg twice a day): moderate toxicity of grade 2 diarrhea | toxicity / DLT ([1]; second patient, dose level 3, 200 mg twice a day): moderate toxicity of grade 2 skin rash | toxicity / DLT ([1]; third patient, dose level 5, 400 mg twice a day): without any DLT | Genes (n): DNA ligation involved in DNA repair (HCC1937+BRCA1): 3 | Genes (n): DNA repair (HCC1937+BRCA1): 44 | Genes (n): DSB repair (HCC1937+BRCA1): 14 | Genes (n): DSB repair via HR (HCC1937+BRCA1): 9 | Genes (n): DSB repair via NHEJ (HCC1937+BRCA1): 3 | tumor ribonucleotide reductase activity (ribonucleotide reductase; 100 mg/kg oral, 12 days): reduced | intratumoral dNTF pools (ribonucleotide reductase; oral COH29): decrease

Source: patent US20210267948A1, “TREATMENT OF CANCER” (CITY OF HOPE, priority 2017, published 2021)
